The assay addresses T1, Polyphenol oxidase 2 (Agaricus bisporus, UniProt O42713).
T1 sequence (O42713 whole entry): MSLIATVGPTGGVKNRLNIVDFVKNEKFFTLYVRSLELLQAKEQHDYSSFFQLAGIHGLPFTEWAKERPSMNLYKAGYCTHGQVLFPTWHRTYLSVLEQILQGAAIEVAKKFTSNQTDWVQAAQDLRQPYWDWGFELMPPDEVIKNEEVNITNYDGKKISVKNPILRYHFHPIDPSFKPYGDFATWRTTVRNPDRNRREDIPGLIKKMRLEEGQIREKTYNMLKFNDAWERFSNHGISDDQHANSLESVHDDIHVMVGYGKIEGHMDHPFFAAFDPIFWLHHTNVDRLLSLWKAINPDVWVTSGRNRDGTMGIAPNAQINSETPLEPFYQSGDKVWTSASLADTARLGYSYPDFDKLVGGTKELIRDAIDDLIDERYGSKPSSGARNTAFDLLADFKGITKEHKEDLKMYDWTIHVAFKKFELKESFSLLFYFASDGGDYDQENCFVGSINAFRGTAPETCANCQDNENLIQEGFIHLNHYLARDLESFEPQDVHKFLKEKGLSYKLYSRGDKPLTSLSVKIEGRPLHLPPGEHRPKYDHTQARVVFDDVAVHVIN
Briefly: Spectrophotometric Assay. The note with it: pH 6.8; 25 °C. Here is the method:
All compounds were dissolved in DMSO (final DMSO concentration in test solution was 2.0%). Phosphate buffer, pH 6.8, was use to dilute the DMSO stock solution of test compounds. Thirty units of mushroom tyrosinase (0.5 mg/mL) were first pre-incubated with the compounds, in 50 mM phosphate buffer (pH 6.8), for 10 min at 25°C, followed by addition of L-DOPA (0.5 mM). The enzyme reaction was monitored by measuring the change in absorbance at 475 nm of formation of the DOPA chrome for 1 min. The measurement was performed in triplicate for each concentration and averaged before further calculation.
Usually IC50 stands for the concentration needed to halve the response being measured. Low readings indicate inhibition by little substance, high ones a need for much substance. The compound `O=C(/C=C/c1ccccc1)c1ccc(O)cc1O` [1-(2,4-dihydroxyphenyl)-3-phenylprop-2-en-1-one (4)] gave an IC50 of 110 µM.

For the compound `O=C(/C=C/c1ccccc1)c1cccc(Cl)c1` [1-(3-chlorophenyl)-3-phenylprop-2-en-1-one (11)], 117 µM corresponded to half-maximal inhibition (IC50).

Compound `COc1ccc(C(=O)/C=C/c2ccccc2)cc1` [1-(4-methoxyphenyl)-3-phenylprop-2-en-1-one (6)] yielded a half-maximal inhibitory concentration (IC50) of 142 µM.

Source of the values: BindingDB's records for doi:10.1111/cbdd.12126 (Shaoyang University, 2013).
